Measured values published in patent publication US20160045463A1, “USE OF METALLOPROTEASE INHIBITORS IN THE TREATMENT OF POLYCYSTIC LIVER DISEASES” (UNIVERSIDAD DE SALAMANCA, priority 2012, published 2016).

What was measured:
PCK rats = assay: Treatment of PCK rats with Marimastat for 8 weeks; format: in vivo, rat
Excerpt: PCK rats, sold by the Charles River company, is a well characterised animal model of ARPKD and used for the study of liver and kidney cystogenesis (Mason S B, et al. The Anatomical Record: Advances in Integrative Anatomy and Evolutionary Biology 2010; 293:1279-1288). This colony of animals has a spontaneous orthologous mutation in the PKHD1 gene that causes them to develop liver and kidney symptoms similar to those of ARPKD patients. Thus, after 4 weeks of life, PCK rats, irrespective of sex, start to develop liver and kidney cystogenesis and fibrosis, which are clearly shown at 16 weeks of life. In addition, these animals also show an increase in serum values of creatinine, bilirubin, cholesterol, triglycerides and proteinuria (Mason S B, et al. The Anatomical Record: Advances in Integrative Anatomy and Evolutionary Biology 2010; 293:1279-1288). PCK rats were maintained on standard diet for the whole assay and all in vivo experimental procedures were approved by the Ethics Committee of the Instituto Biodonostia.
The group of control rats received the vehicle solution (i.e. distilled water) orally, 2 times a day (every ˜8-12 hours) and using the tube. Various biochemical markers were monitored in serum at the start and end of the study. Blood was extracted (500 μl through the tail vein) after anaesthetising the animal with isoflurane (inhalation anaesthesia, 2.5% in oxygen, with a flow rate of 0.3 L/min). After centrifuging the blood, various biochemical parameters were determined in the serum: alkaline phosphatase (ALP), transaminases (ALT, AST), bilirubin, biliary acids, creatinine, cholesterol, triglycerides and total proteins using a COBAS Integra400 Plus 174 analyser.
After sacrificing the animals, the liver and kidney were removed and weighed; next both types of tissue were sectioned with a scalpel and fixed with a solution of 10% formaldehyde, to be later included in paraffin. Slices of 5 μm thickness were made of each sample and stained with hematoxylin-eosin or picrosirius red.
The aim of hematoxylin-eosin staining is the determination of histological morphology. Thus the slices were incubated for 4 minutes with Harris hematoxylin (Merck) at room temperature. After incubation, the samples were washed with distilled water and stained with eosin (Merck) for 1 minute at room temperature. Next, the tissue slices were washed in running water for 5 minutes, dehydrated by immersion in solutions of increasing ethanol concentration (70%, 96%, 100% for 1 minute each) and finally incubated with xylol for 5 minutes. The samples were mounted with DePeX (Sigma) mounting medium for subsequent viewing in an optical microscope (Nikon Eclipse E800).
The purpose of picrosirius red staining is the determination of extracellular collagen in the tissue. When hydration was completed, the slices were stained with 0.2% phosphomolybdic acid (Panreac Química) for 2 minutes and washed with distilled water. Next, the samples were incubated with a solution of 0.1% picrosirius red f3B (Gibco) for 3 hours. Finally the samples were washed with a solution of 0.01 N HCl for 2 minutes; the tissue was then dehydrated and mounted as described in the previous section.
Additionally, the level of expression of various profibrotic hepatic markers [collagen 1a1 (Col1a1), beta transforming growth factor (TGFbeta), alpha actin of smooth muscle (alpha-Sma) and the growth factor of connective tissue (Ctgf)] and proinflammatory markers [IL-6, IL CXCL1 and IL1beta)] were analysed by RT-PCR in liver samples of control and PCK rats.

[1] = cited from earlier work
[2] = at the time of sacrifice, n = 9
[3] = serum, at the time of sacrifice, n = 9

With `CNC(=O)[C@@H](NC(=O)[C@H](CC(C)C)[C@H](O)C(=O)NO)C(C)(C)C` [Marimastat, N-[2,2-dimethyl-1-(methylcarbamoyl)propyl]-2-[hydroxy-(hydroxycarbamoyl)methyl]-4-methyl-pentanamide] the kidney cystogenesis (PCK rats; 8 weeks, FIG. 25) was “not affected”, the “cholangiocyte marker Ck19 expression at protein level (Western blot), hepatic samples” value (PCK rats; 8 weeks, p<0.001, FIG. 27A) was “down regulation” and the “collagen 1a1 (Col1a1) mRNA expression, hepatic samples” value (PCK rats; 8 weeks, p<0.05, FIG. 27B) was “down regulation”. The “mRNA levels of CXCL1 in liver samples” value (PCK rats; 8 weeks, p=0.08, FIG. 28B) was “almost statistically significant down regulation”, the “mRNA levels of IL6 in liver samples” value (PCK rats; 8 weeks, p=0.1, FIG. 28A) was “almost statistically significant down regulation” and the “collagen deposition in liver (picrosirius red)” value (PCK rats; 8 weeks, vs control PCK rats, FIG. 26) was “less collagen deposition”. For the same molecule, the “WEIGHT Left kidney” value (PCK rats; [2]) was 2.40 ± 0.19, the “WEIGHT Liver” value (PCK rats; [2]) was 26.17 ± 2.98 and the “WEIGHT Rat” value (PCK rats; [2]) was 497 ± 12.24. For the same molecule, the “WEIGHT Right kidney” value (PCK rats; [2]) was 2.36 ± 0.17, the “serum levels of biochemical markers and biliary flow” value (PCK rats; at the time of sacrifice, treated vs control, Table 5) was “no difference” and the “liver cystogenesis (area of intrahepatic biliary cysts)” value (PCK rats; oral 0.2856 mg/kg/day, 8 weeks, vs control PCK rats, p<0.05, FIG. 24) was “reduction”. The ALT (PCK rats; [3]) was 138.22 ± 2.66 U/L, the AST (PCK rats; [3]) was 755.56 ± 24.76 U/L and the Albumin (PCK rats; [3]) was 13.78 ± 0.59 g/L. It also gave an Alkaline phosphatase (PCK rats; [3]) of 57.00 ± 5.01 U/L, a Cholesterol (PCK rats; [3]) of 76.56 ± 3.93 mg/dL and a Creatinine (PCK rats; [3]) of 0.36 ± 0.02 mg/dL. For the same molecule, the Glucose (PCK rats; [3]) was 137.89 ± 7.25 mg/dL, the HDL (PCK rats; [3]) was 31.11 ± 3.06 mg/dL and the LDH (PCK rats; [3]) was 15192.33 ± 356.84 U/L. The LDL (PCK rats; [3]) was 33.38 ± 1.61 mg/dL, the Total bilirubin (PCK rats; [3]) was 0.16 ± 0.05 mg/dL and the Total protein (PCK rats; [3]) was 3.11 ± 0.12 g/dL. The Triglycerides (PCK rats; [3]) was 60.33 ± 3.97 mg/dL, the Urea (PCK rats; [3]) was 20.33 ± 0.78 mg/dL and the oral bioavailability ([1]; compared with Batimastat) was “better oral bioavailability”. The toxicity ([1]; compared with Batimastat) was “less toxicity” and the elimination half-life ([1]; in vivo) was 8 to 10 h.
